In US20020049205A1, “Pyrazole antimicrobial agents” (priority 2000, published 2002):

Experiments:
[1] = biological target: T1, Sigma^70 saturated E. coli RNA Polymerase (Escherichia coli, UniProt P0A7Z4+P0A800+P0A8T7+P0A8V2); assay: IC50 assay, inhibition of RNA polymerase; type: biochemical; conditions: Table 1, compounds of Formula 1
T1 construct: purchased Epicenter
Method: One common assay involves evaluation of the compounds as RNA polymerase inhibitors. In this assay, buffer (250 mM KCl, 5% glycerol, 10 mM MgCl2, 0.1 mg/ml BSA) is combined with 6 mM β-M.E., PT5 DNA template, and 1.3 μg/rxn Sigma^70 saturated E. coli RNA Polymerase (Epicenter). The compound is then added in a manner not to exceed 5% DMSO. Nucleotide triphosphates are then added at the following concentration: 250 μM ATP, CTP and UTP with 100 μM cold CTP and 50 μM α-^32P CTP. The mixture is incubated for 10 min at about 37° C. A [2×] loading buffer is added and the mixture is then run on a 6% urea denaturing PAGE until bromophenol blue reaches the edge of plate. The gel is soaked (about 20 minutes in 10% MeOH and 10% acetic acid, to remove urea), then dried (about 55 minutes at about 85° C. (BioRad Gel Drier)) and exposed to a Phospho Imaging Plate for 1 hour. The plate is then read on a Fujix Bas1000 Imaging System and quantified using MacBas v2.0 software. An IC50 (in μM) can be calculated as the concentration of a drug which reduces the enzyme activity to 50% of the control.
In this assay, buffer (250 mM KCl, 5% Glycerol, 10 mM MgCl2, 0.1 mg/ml bovine serum albumin (BSA)) is combined with 6 mM β-mercaptoethanol, PT5 DNA template, and 1.3 μg/rxn Sigma^70 saturated E. coli RNA Polymerase (obtained from Epicenter). The compound is then added in a manner not to exceed 5% DMSO. Nucleotide triphosphates are then added at the following concentration: 250 μM ATP, CTP and UTP with 100 μM cold CTP and 50 μM α-32P CTP. The mixture is incubated for 10 min at about 37° C. A [2×] loading buffer is added and the mixture is then run on a 6% urea denaturing PAGE until bromophenol blue reaches the edge of plate. The gel is soaked (about 20 minutes in 10% MeOH and 10% acetic acid, to remove urea), then dried (about 55 minutes at about 85° C. (BioRad Gel Drier)) and exposed to a Phospho Imaging Plate for 1 hour. The plate is then read on a Fujix Bas1000 Imaging System and quantified using MacBas v2.0 software. An IC50 (in μM) can be calculated as the concentration of a compound of the invention that reduces the enzyme activity to 50% of the control. For the sake of clarity, the above-described assay is used to determine the IC50 values referenced in the claims. However, the skilled artisan will recognize that other methods can be used to determine an IC50 value.

B. su = assay: Minimum Inhibitory Concentration assay, B. su; type: cell-based; conditions: LB medium, 16 hours, 37° C.; Table 1
Method: (§1) For Minimum Inhibitory Concentration (MIC) determinations for selected bacteria, log phase growing bacteria are re-suspended at 1×10^5 bacteria per mL in LB medium. The compound is added and two-fold dilutions are made. The final volume in the 96-well plate is about 100 μL. The plate is incubated at 37° C. in the dark with shaking. After 16 hours of incubation, growth is monitored by reading A600 or by visual inspection. MIC is defined as the minimum concentration of drug resulting in inhibition of visible growth of bacterial under the conditions described (above) in National Committee for Clinical Laboratory Standards 1993. Methods for dilution antimicrobial susceptibility tests for bacteria that grow aerobically. Approved standard M7-A3; National Committee for Clinical Laboratory Standards: Villanova, Pa.
as §1, with “MIC” for “Minimum Inhibitory Concentration (MIC)”

S. au = assay: Minimum Inhibitory Concentration assay, S. au; type: cell-based; conditions: LB medium, 16 hours, 37° C.; Table 1
Method: as §1
as §1, with “MIC” for “Minimum Inhibitory Concentration (MIC)”

E.c(tolC) = assay: Minimum Inhibitory Concentration assay, E.c(tolC); type: cell-based; conditions: 16 h, read-out: MIC (μM) E.c(tolC)
Method: as §1
as §1, with “MIC” for “Minimum Inhibitory Concentration (MIC)”

T1 sequence (P0A8V2 whole entry): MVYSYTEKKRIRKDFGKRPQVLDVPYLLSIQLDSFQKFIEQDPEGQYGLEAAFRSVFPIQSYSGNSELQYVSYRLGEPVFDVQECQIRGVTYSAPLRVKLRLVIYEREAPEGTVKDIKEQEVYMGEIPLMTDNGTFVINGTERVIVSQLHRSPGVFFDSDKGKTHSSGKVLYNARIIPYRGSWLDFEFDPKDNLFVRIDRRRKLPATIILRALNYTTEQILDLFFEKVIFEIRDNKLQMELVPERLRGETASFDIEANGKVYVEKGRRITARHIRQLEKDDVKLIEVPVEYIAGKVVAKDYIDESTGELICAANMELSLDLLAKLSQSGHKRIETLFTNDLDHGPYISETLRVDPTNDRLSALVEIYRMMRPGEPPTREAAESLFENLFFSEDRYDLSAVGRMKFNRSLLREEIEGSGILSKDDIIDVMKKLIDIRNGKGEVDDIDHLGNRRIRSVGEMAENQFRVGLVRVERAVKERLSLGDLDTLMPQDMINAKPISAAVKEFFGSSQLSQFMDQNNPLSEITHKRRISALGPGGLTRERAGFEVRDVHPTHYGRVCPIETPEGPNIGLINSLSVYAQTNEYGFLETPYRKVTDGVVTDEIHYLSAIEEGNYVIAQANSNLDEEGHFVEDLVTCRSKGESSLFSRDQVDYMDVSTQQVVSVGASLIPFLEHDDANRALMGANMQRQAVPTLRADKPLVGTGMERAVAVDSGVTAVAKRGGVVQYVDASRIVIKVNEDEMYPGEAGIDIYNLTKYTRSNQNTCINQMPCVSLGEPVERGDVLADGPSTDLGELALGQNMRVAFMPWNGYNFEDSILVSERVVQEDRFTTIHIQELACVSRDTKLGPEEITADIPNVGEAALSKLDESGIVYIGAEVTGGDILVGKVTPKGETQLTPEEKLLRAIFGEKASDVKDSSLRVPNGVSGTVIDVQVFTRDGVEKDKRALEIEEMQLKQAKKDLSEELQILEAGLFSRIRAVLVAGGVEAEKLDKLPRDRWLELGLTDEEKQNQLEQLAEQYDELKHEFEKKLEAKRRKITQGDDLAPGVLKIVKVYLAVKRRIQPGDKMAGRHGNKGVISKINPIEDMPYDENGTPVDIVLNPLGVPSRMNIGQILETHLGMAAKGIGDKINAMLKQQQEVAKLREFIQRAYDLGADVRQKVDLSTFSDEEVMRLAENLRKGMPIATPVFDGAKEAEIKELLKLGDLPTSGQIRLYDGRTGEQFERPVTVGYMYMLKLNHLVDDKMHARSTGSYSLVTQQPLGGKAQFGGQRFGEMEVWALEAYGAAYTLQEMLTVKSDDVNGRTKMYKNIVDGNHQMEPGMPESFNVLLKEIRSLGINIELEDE
T1 sequence (P0A8T7 whole entry): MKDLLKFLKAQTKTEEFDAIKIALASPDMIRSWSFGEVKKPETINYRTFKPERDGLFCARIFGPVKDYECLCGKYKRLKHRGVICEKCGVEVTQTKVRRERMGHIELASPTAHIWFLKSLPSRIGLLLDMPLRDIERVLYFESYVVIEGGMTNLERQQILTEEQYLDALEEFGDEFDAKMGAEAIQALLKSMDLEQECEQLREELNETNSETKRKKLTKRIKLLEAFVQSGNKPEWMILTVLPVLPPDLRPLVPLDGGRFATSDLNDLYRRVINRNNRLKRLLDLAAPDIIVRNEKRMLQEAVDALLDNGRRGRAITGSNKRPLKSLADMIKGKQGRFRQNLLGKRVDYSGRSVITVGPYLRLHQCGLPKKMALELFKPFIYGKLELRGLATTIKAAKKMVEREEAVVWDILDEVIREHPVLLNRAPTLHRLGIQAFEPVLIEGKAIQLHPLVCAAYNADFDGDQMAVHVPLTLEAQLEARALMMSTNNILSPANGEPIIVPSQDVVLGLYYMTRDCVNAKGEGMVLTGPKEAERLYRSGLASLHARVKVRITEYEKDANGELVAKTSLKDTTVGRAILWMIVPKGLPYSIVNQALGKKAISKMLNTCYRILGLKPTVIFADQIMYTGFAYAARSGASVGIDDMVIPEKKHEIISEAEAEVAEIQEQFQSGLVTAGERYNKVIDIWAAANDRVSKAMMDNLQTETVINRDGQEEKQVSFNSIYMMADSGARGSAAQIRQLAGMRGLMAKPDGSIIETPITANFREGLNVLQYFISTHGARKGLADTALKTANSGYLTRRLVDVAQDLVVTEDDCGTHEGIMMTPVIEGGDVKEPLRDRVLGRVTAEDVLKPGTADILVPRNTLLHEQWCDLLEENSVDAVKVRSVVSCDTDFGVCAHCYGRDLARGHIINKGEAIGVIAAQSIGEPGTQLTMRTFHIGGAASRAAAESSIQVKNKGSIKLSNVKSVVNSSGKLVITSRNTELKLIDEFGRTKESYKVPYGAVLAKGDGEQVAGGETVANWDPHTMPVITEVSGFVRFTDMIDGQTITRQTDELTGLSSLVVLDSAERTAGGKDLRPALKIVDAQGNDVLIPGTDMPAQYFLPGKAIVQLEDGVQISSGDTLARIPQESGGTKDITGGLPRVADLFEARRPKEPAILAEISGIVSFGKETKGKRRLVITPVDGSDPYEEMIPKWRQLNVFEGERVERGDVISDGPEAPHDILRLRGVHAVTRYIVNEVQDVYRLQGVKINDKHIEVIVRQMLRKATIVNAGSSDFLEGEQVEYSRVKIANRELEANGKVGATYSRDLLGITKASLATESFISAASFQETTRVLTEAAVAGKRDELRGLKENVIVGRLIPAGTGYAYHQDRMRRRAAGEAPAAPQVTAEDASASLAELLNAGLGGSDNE
T1 sequence (P0A7Z4 whole entry): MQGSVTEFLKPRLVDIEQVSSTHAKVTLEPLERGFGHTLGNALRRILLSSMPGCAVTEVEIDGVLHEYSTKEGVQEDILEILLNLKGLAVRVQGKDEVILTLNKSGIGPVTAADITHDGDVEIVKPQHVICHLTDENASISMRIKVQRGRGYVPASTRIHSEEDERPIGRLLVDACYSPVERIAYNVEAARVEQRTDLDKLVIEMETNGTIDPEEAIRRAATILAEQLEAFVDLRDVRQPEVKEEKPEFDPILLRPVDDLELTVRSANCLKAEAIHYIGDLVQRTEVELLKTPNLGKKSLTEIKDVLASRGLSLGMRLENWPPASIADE
T1 sequence (P0A800 whole entry): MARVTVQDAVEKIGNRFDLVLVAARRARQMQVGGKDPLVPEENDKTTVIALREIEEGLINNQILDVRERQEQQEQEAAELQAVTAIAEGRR

O=C(NCCCNc1cc(-c2c[nH]nc2-c2ccc(F)cc2)cc(C(F)(F)F)c1)Nc1ccc(Cl)c(C(F)(F)F)c1 [Example 31]
IC50 [1]: < 500 µM | MIC (B. su): < 500 µM | MIC (S. au): < 500 µM | MIC (E.c(tolC)): > 500 µM
